Experimental data taken from patent publication US20130281512A1, “AGENTS FOR TREATING DISORDERS INVOLVING MODULATION OF RYANODINE RECEPTORS” (LES LABORATOIRES SERVIER, priority 2012, published 2013).

How the values were obtained:
[1] = Metabolic stability in human hepatic microsomes (Clint, predicted MF %); assay type: in vitro ADME
Protocol: Compound solubilization: Stock solutions were made in DMSO, and working solutions in water containing 1 mg/ml BSA.
Prediction of metabolic bioavailability: Metabolic bioavailability predictions (MF %) were based on in vitro metabolic stability measurements with hepatic microsomes assuming total absorption. Briefly, unchanged drugs were quantified by LC-MS-MS following incubation (10^−7M) with rat and human hepatic microsomes (0.33 mg protein/ml) after 0, 5, 15, 30 and 60 min of incubation in presence of NADPH (1 mM). Enzymatic reaction was stopped with methanol (v/v) and proteins were precipitated by centrifugation. The in vitro intrinsic clearances (Clint_mic) expressed as ml/min/g protein were the slope (after LN linearization) of the unchanged drug remaining concentration versus incubation time. In vitro Clint were then scaled up to in vivo whole body (vivoClint) using 0.045 mg prot/kg of liver and liver weight of 11 g for the rat and 1.2 kg for Man.

mdx mice = test: Muscle function in mouse muscular dystrophy model (mdx): voluntary wheel activity, EDL specific force; assay type: in vivo
Protocol: (§1) Voluntary activity on wheel, body weight, and average water consumption were measured in the first 3 weeks. Specific muscle force was measured after 4 weeks of treatment, at the end of the study.
(§2) Distance traveled (Km/day) over a 24 hr period was analyzed as an index of improved functional activity (see, DMD_M.2.1.002 SOP at http://www.treat-nmd.eu/). At the conclusion of the study, Extensor digitorum longus (EDL) muscle was isolated for muscle force analysis as further described hereinbelow. Blood was collected from each mouse by retro-orbital bleeds at the end of the study (after end of dark cycle—about 7 AM) to assess drug plasma concentrations. Experiments were blinded.
At the end of the study, EDL muscle was dissected from hind limbs for isometric force analysis using the 407A Muscle Test System from Aurora Scientific (Aurora, Ontario, Canada). A 6-0 suture were tied to each tendon and the entire EDL muscle, tendon to tendon, was transferred to a Ragnoti bath of O2/CO2 (95%/5%) bubbled Tyrode solution (in mM: NaCl 121, KCl 5.0, CaCl2 1.8, MgCl2, NaH2PO4, NaHCO3 24, and glucose 5.5). Using the sutures, one tendon was tied vertically to a stainless steel hook connected to a force transducer The other sutured tendon was clamped down into a moving arm on the Aurora system. The EDL muscle was stimulated to contract using an electrical field between two platinum electrodes. At the start of each experiment, muscle length was adjusted to yield the maximum force. Force-frequency relationships were determined by triggering contraction using incremental stimulation frequencies (5-250 Hz for 200 ms at suprathreshold voltage). Between stimulations the muscle was allowed to rest ˜3 min. At the end of the force measurement, the length (Lo) of the EDL muscle while sutured in the Aurora system was measured excluding the tendons. The EDL muscle was then removed from the system and weighed after clipping the end tendons and sutures off. The EDL muscle was then frozen in liquid nitrogen. The cross-sectional area (mm^2) of the EDL muscle was calculated by dividing the EDL muscle weight by the EDL muscle length and the mammalian muscle density constant of […] (Yamada, T., et al. Arthritis and rheumatism 60:3280-3289). To determine EDL specific force (kN/m^2), the absolute tetanic force was divided by the EDL muscle cross-sectional area.
For statistical analysis of distance traveled, change from baseline was calculated for each day by subtracting the baseline value (defined as the mean of the two measurements obtained on Day −1 and Day −2) from each post dose assessment. Change from baseline was then statistically analyzed with a repeated measures analysis of variance model with fixed effects for treatment, day and treatment by day interaction. Baseline was included as a covariate and mouse was included as a random effect. The most appropriate covariance structure was determined through investigation of the Akaike's Information Criterion (AIC) and Bayesian Information Criterion (BIC). The covariance structures investigated were autoregressive, compound symmetry, unstructured, and toeplitz. The optimal covariance structure selected was compound symmetry. From the model, point estimates and associated 95% confidence intervals (CI) for the difference in change from baseline between each ARM210 treated mice group and vehicle treated group (for both mdx and C57BL/6 mice) were obtained for each day, each week, and the entire assessment period from Day 1 to Day 19. As this study is exploratory in nature, no adjustments in multiple comparisons were made.
Specific force was analyzed using a repeated measures analysis of variance model with fixed effects for treatment, frequency and treatment by frequency interaction and mouse as a random effect. Similar to the analysis described above, the optimal covariance structure was chosen from among autoregressive, compound symmetry, unstructured, and toeplitz. […]

WT mice = test: Voluntary wheel activity and EDL specific force in WT (C57BL/6) mice; assay type: in vivo, mouse; details: 50 mg/kg/d
Protocol: as §1, §2
At the end of the study, EDL muscle was dissected from hind limbs for isometric force analysis using the 407A Muscle Test System from Aurora Scientific (Aurora, Ontario, Canada). […] Force-frequency relationships were determined by triggering contraction using incremental stimulation frequencies (5-250 Hz for 200 ms at suprathreshold voltage). […] At the end of the force measurement, the length (Lo) of the EDL muscle while sutured in the Aurora system was measured excluding the tendons. […] The cross-sectional area (mm^2) of the EDL muscle was calculated by dividing the EDL muscle weight by the EDL muscle length and the mammalian muscle density constant of […] (Yamada, T., et al. Arthritis and rheumatism 60:3280-3289). […]

[2] = mdx and WT mice, drinking water

Compound: COc1ccc2c(c1)CN(Cc1ccc(C(=O)O)cc1)CCS2 [Compound 1, 4-((7-Methoxy-2,3-dihydrobenzo[f][1,4]thiazepin-4(5H)-yl)methyl)benzoic acid]
- Class (metabolic bioavailability) [1]: high
- Clint_mic man (in vitro intrinsic clearance) ([1]; 10^-7 M, 0.33 mg protein/ml, NADPH): 9.1 ml/min/gprot
- MF mic % (metabolic bioavailability) ([1]; predicted from Clint assuming total absorption): 75%
- body weight (mdx mice; [2]): did not affect
- water consumption (mdx mice; [2]): No dose-dependent effects
- specific muscle force (EDL) (mdx mice; mdx mice, 50 mg/kg/d, stimulation frequencies of 150 Hz and above, P<0.05): statistically significant increase
- specific force of EDL muscle (mdx mice; mdx mice, 5, 10 and 50 mg/kg/d, 4 weeks): increased specific force in mdx muscle dose-dependently
- distance traveled on voluntary wheel (mdx mice; mdx mice, 10 and 50 mg/kg/d (target dose) sodium salt in drinking water, day 1 to day 19, vs vehicle, P<0.001): significantly longer distances
- time to treatment effect on wheel activity after treatment initiation (mdx mice; mdx mice, drinking water): 2 to 3 days
- travel distance on voluntary wheel (WT mice): No effect
- specific muscle force (EDL) (WT mice; 4 weeks): No effect
